The values below come from ChEMBL document CHEMBL4414582, “Lathyrane, Premyrsinane, and Related Diterpenes from Euphorbia boetica: Effect on in Vitro Neural Progenitor Cell Proliferation” (J Nat Prod, 2019).

A short description of data set [1]: Effect on self-renewal capacity in mouse neurospheres derived neural precursor cells assessed as neurosphere number at 1 to 10 uM after 72 hrs in presence of bFGF by phase contrast microscopic based analysis. The format is ADME.
For data set [2], the species on record is Mus musculus. In words: Activation of PKC in mouse neurospheres derived neural precursor cells assessed as cell proliferation by measuring neurosphere size at 1 to 10 uM after 72 hrs in presence of bFGF by phase contrast microscopic based analysis.
Data set [3] can be described thus: Effect on self renewal capacity in mouse neurospheres derived neural precursor cells assessed as neurosphere number at 1 to 10 uM after 72 hrs in presence of EGF and bFGF by phase contrast microscopic based analysis. Format: ADME.
Data set [4] is filed under the species Mus musculus. In words: Activation of PKC in mouse neurospheres derived neural precursor cells assessed as cell proliferation by measuring neurosphere size at 1 to 10 uM after 72 hrs in presence of EGF by phase contrast microscopic based analysis.
Data set [5] can be described thus: Effect on cell viability in mouse neurospheres derived neural precursor cells assessed as neurosphere number at 1 to 10 uM after 72 hrs in presence of bFGF by phase contrast microscopic based analysis.
Data set [6] is filed under the species Mus musculus. Briefly: Activation of PKC in mouse neurospheres derived neural precursor cells assessed as cell proliferation by measuring neurosphere size at 1 uM after 72 hrs in presence of EGF and bFGF by phase contrast microscopic based analysis.
Data set [7] in a line: Effect on cell viability in mouse neurospheres derived neural precursor cells assessed as neurosphere number at 1 to 10 uM after 72 hrs in presence of bFGF and EGF by phase contrast microscopic based analysis.
The species named for data set [8] is Mus musculus. Briefly: Activation of PKC in mouse neurospheres derived neural precursor cells assessed as increase in cell proliferation by measuring increase in neurosphere size at 5 to 10 uM after 72 hrs in presence of EGF and bFGF by phase contrast microscopic based analysis.
For data set [9], the species on record is Mus musculus. Briefly: Activation of PKC in mouse neurospheres derived neural precursor cells assessed as increase in cell proliferation by measuring increase in neurosphere size after 72 hrs in presence of EGF and bFGF by phase contrast microscopic based analysis.
Data set [10] in a line: Effect on cell viability in mouse neurospheres derived neural precursor cells assessed as neurosphere number at 1 to 10 uM after 72 hrs in presence of EGF by phase contrast microscopic based analysis.
The nature of data set [11]: Effect on self-renewal capacity in mouse neurospheres derived neural precursor cells assessed as neurosphere number at 1 to 10 uM after 72 hrs in presence of EGF by phase contrast microscopic based analysis. Format: ADME.
The species named for data set [12] is Mus musculus. Briefly: Activation of PKC in mouse neurospheres derived neural precursor cells assessed as increase in cell proliferation by measuring increase in neurosphere area at 5 uM after 72 hrs in presence of EGF and bFGF by phase contrast microscopic based analysis.

Calls of active or inactive are those of the source. The calls are words filed in the database; no cut-off is given here.

With `CC(=O)O[C@@H]1[C@@H]2[C@@H](OC(C)=O)[C@]3(CC[C@H]4[C@@H](/C=C(\C)C(=O)[C@@]2(OC(C)=O)C[C@@H]1C)C4(C)C)CO3`, the Activity entry in data set [1] is “Non-Toxic”; in [3] it was “Non-Toxic”; in data set [5], “Non-Toxic”; in data set [7], “Non-Toxic”; in the data set listed under Mus musculus [9], “Dose-dependent effect”; in data set [10], “Non-Toxic”. In addition, the Activity entry in [11] is on record as “Non-Toxic”. Further, the result in the data set filed under Mus musculus [2], in the data set filed under Mus musculus [4] and in the data set filed under Mus musculus [6] was inactive. Also, the result in the data set filed under Mus musculus [8] was Active.

On to `C=C1CC[C@H]2[C@@H](/C=C(\C)C(=O)[C@@]3(OC(C)=O)C[C@H](C)[C@H](OC(C)=O)[C@@H]3[C@H]1OC(C)=O)C2(C)C`, for which the Activity result in [1], in data set [3], in data set [5], in [7], in data set [10] and in data set [11] was “Non-Toxic” each time. Besides, the outcome in the data set filed under Mus musculus [12] was Active.
